Data set [1] deals with T1, glycine binding site of the NMDA receptor (Rattus norvegicus, UniProt P35439).
T1 construct: rat brain membrane homogenates which are enriched in NMDA receptors; tissue Pel-Freez, Rogers, Ark; host or cells: whole rat brain, washed membrane homogenate
The experiment in a line: 1 μM glycine-stimulated [3H]-MK-801 binding, rat brain membrane homogenates. Conditions: for IC50: rat brain homogenates, [3H]-MK-801 binding, 1 μM glycine; for activity (glycine receptor antagonism), in words: structure-activity statements. As to the method:
^a Experiments described herein utilizing rat brain homogenates and a
The assay is conducted using rat brain membrane homogenates which are enriched in NMDA receptors. The membranes are prepared as follows. Frozen rat brains (obtained from Pel-Freez, Rogers, Ark.) are homogenized in 15 volumes (w/v) of ice cold 0.32M sucrose. The homogenate is spun at 1,000×g for ten minutes. The supernatant is collected and spun for 20 minutes at 44,000×g. The pellet is suspended in 15 volumes of water (relative to original brain weight). The homogenate is again spun at 44,000×g for twenty minutes. The pellet is resuspended in 5 volumes of water and the suspension is freeze-thawed 2 times. After the final thaw cycle, the suspension is brought to 15 volumes with water and spun at 44,000×g for twenty minutes. The pellet is resuspended in 5 volumes of ice-cold 10 mM HEPES, and is titrated to pH 7.4 with KOH containing 0.04% Triton X-100. Membranes are incubated with the Triton/HEPES buffer at 37° C. for 15 minutes. The volume is then brought to 15 with ice-cold 10 mM HEPES, pH 7.4, and spun/washed three times with spins of 44,000×g between washes. The final pellet is suspended in three volumes of 50 mM HEPES, pH 7.4 and the protein concentration is determined with a standard dye-binding protein assay (Bio-Rad, Richmond, Calif.). The suspension is stored at -80° C. until used. Only HPLC grade water is used for all buffers and suspensions/washings. The extensive washings are necessary to remove as much endogenous glycine from the membrane preparation as possible.
Nonspecific binding is defined as the […] presence of PCP (final concentration: 100 μM). […] A 500 nM concentration (final) of 5,7-dichlorokynurenic (DCK) acid is added to all assay tubes. This concentration of the glycine antagonist DCK "buffers" most of the residual endogenous glycine that is not removed by the extensive washing steps that are carried out during the membrane preparation procedure.
The assays are incubated for 120 minutes at room temperature after which time the membrane-bound radioactivity is isolated from the free radioactivity by vacuum filtration through Whatman glass fiber filters that had been pretreated with 0.3% polyethyleneimine. Filtration is accomplished using a Brandel 48 well cell harvester. Filtered membranes are washed three times with 3 mL each of ice cold buffer. Filters are transferred to scintillation vials and 5 mL of scintillation cocktail is added. The vials are shaken overnight and the radioactivity is counted by liquid scintillation spectroscopy. The assays are done in triplicate and all experiments are conducted at least three times.
Inhibition dose response curves are constructed using increasing concentrations of glycine antagonists from 5 nM to 330 μM.
After constructing inhibition dose response curves and determination of glycine reversibility, Ki values for the glycine antagonists are calculated using the Cheng and Prusoff equation employing the experimentally determined IC50 values, the known concentration of glycine in the assay (1 μM) and the known affinity of glycine for the glycine binding site of the NMDA receptor (100 nM).
Binding Assays and In Vivo Studies.

In data set [2] the target is strychnine insensitive glycine site associated with the NMDA receptor complex. Conditions: Swartz et al., cited from earlier work; for Kb: Mol. Pharmacol. 41:1130-1141 (1992), footnote d.
The subject of data set [3] is glycine binding site of the NMDA receptor. Conditions: cited from earlier work; for affinity / antagonism at the glycine binding site, in words: literature.
For data set [4] the following is noted: literature; cited from earlier work.
The target of another data set is T2, glycine/NMDA receptor (Rattus norvegicus, UniProt P35439).
T2 construct: expressed in transfected cells; host or cells: Xenopus oocytes (RNA injected)
The data set can be described thus: electrophysiology using Xenopus oocytes. It is filed as cell-based.

Another data set has as its system male Swiss/Webster mice. The experiment in a line: maximum electroshock-induced seizure (MES) assay. In kind it is in vivo, mouse. The conditions noted are these: anticonvulsant, MES in mice; for ED50: Mus musculus, iv. The protocol: The anticonvulsant activity of the glycine antagonists may be assessed in the maximum electroshock-induced seizure (MES) assay in mice. […] The seizure stimulus parameters are 50 mA, 60 Hz, rectangular pulse, width 0.8 msec, duration 200 msec. Tonic hind limb extension observed after application of the electrical stimulus is recorded as occurrence of seizure.

The target of data set [5] is strychnine insensitive glycine site associated with the NMDA receptor complex. The conditions noted are these: rat brain homogenates, [3H]-glycine binding; footnote b; cited from earlier work.
For another data set, the system named is guinea pig ileum. Conditions: guinea pig ileum contraction; footnote c; cited from earlier work.
For data set [6], the system named is neurons in brain ischemia. Conditions: literature; cited from earlier work.
The test system of the next data set is rodents. Conditions: literature; cited from earlier work.
Where [7] appears, read: from electrophysiology using Xenopus oocytes unless otherwise noted, read-out: Ki.

Data on 33 molecules can be found in US5476933A, “Azepine synthesis via a diels-alder reaction” (priority 1994, dated 1995).

Where two headings read alike, the source gives them in different places.

As usually defined, the IC50 is the concentration at which inhibition is half-maximal. As usually defined, the Ki is the dissociation constant of the complex between target and ligand, obtained from inhibition or displacement. Broadly, the ED50 is the midpoint of the dose-response relation. Low values mean an effect at a small dose, high ones a need for a large dose.

Regarding `Cc1ccc(C)c2c(=O)cc(O)c(=O)[nH]c12` [Compound 45, 3-Hydroxy-6,9-dimethyl-1H-1-benzazepine-2,5-dione], the IC50 entry in data set [1] is “inactive”. Consider `O=c1[nH]c2ccc([N+](=O)[O-])cc2c(=O)cc1O` [Compound 11], for which the IC50 in data set [1] (read-out: IC50) came to 300000 nM. Still for that read-out and setting: for `Cc1cc2[nH]c(=O)c(O)cc(=O)c2cc1C` [Compound 46, 3-Hydroxy-7,8-dimethyl-1-benzazepine-2,5-dione] the value was 7300 nM. `O=c1cc(O)c(=O)[nH]c2c1C1CCC2C1` (stereo not drawn) [Compound 70, 3-hydroxy-6,9-methano-6,7,8,9-tetrahydro-1H-1-benzazepine-2,5-dione] returned a Ki in data set [1] (from binding assays (footnote d of Table 2)) of 760 nM. Besides, the 50% inhibitory concentration (IC50) in data set [1] (read-out: IC50) was 8400 nM. On to `O=c1[nH]c2cc(F)ccc2c(=O)cc1O` [Compound 5], for which the IC50 in [1] (read-out: IC50) amounted to 1700 nM. Further, the “activity (glycine receptor antagonism), in words” value (“activity” for short) in data set [1] was “enhanced activity”. As for `Cc1ccc2c(=O)cc(O)c(=O)[nH]c2c1` [Compound 3], the IC50 in data set [1] (read-out: IC50) was found to be 3400 nM. Further, in data set [1], the “activity” value is “enhanced activity”. In addition, in [2], the Kb is 470 nM and the “antagonism, in words” value is given as “antagonists at the strychnine insensitive glycine site”. With `O=C(Nc1ccc2[nH]c(=O)c(O)cc(=O)c2c1)C(F)(F)F` [Compound 13], in data set [1], the IC50 entry is “Inactive”. Consider `O=C(O)c1cc(O)c2c(Cl)cc(Cl)cc2n1` [5,7-dichlorokynurenic acid (DCK), 5,7-dichlorokynurenic acid], for which the “affinity / antagonism at the glycine binding site, in words” value (shortened to “affinity / antagonism”) in [3] is “relatively high receptor binding affinity in vitro”.

For `O=c1[nH]c2ccccc2c(=O)cc1O` [Compound 1, 3-hydroxy-1H-1-benzazepine-2,5-dione], the IC50 in data set [1] (read-out: IC50) is 7800 nM. For the same molecule, in [2], the Kb is 3000 nM and the “antagonism, in words” value was “antagonists at the strychnine insensitive glycine site”.

`O=C(O)c1cc(O)c2ccc(Cl)cc2n1` [7-Cl-kynurenic acid]: the “affinity / antagonism” value in data set [3] is given as “relatively high receptor binding affinity in vitro”. The “blood/brain barrier penetration, in words” value in data set [4] is given as “cannot penetrate the blood/brain barrier”. Regarding `O=c1cc(O)c(=O)[nH]c2c1C1CCC2CC1` [Compound 87, 6,9-Ethano-3-hydroxy-6,7,8,9-tetrahydro-1H-1-benzazepine-2,5-dione], the IC50 in data set [1] (read-out: IC50) amounted to 6700 nM. Besides, the Ki on glycine/NMDA receptor (setting [7]) is 332 nM. Besides, the ED50 in the data set with male Swiss/Webster mice was 8 mg/kg. As to `CC1c2c([nH]c(=O)c(O)cc2=O)CC(Cl)C1Cl` (stereo not drawn) [Compound 112, 7,8-dichloro-3-hydroxy-6-methyl-6,7,8,9-tetrahydro,1H-1-benzazepine-2,5-dione], in data set [1] (read-out: IC50), the concentration for half-maximal inhibition (IC50) turned out to be 380 nM. In addition, the Ki at glycine/NMDA receptor (setting [7]) stood at 7 nM. For `Cc1cccc2[nH]c(=O)c(O)cc(=O)c12` [Compound 93, 3-Hydroxy-6-methyl-1H-1-benzazepine-2,5-dione], in data set [1] (read-out: IC50), the IC50 was 196000 nM.

Turning to `O=c1[nH]c2cc(Cl)c(Cl)c([N+](=O)[O-])c2[nH]c1=O` [6,7-dichloro-5-nitro-1,4-dihydroquinoxaline-2,3-dione], at glycine/NMDA receptor, the affinity, expressed as Ki, was 3.3 nM. Further, the “ED50 (MES)” value in the data set with male Swiss/Webster mice lay in the range of 4 to 5 mg/kg. Take `O=c1[nH]c2cc(Br)ccc2c(=O)cc1O` [Compound 7]: the IC50 is 1300 nM in data set [1] (read-out: IC50), 97 nM in data set [5] and 1000 nM with guinea pig ileum. Moreover, in data set [1], the “activity” value was “enhanced activity”. For `O=c1[nH]c2ccc(Br)cc2c(=O)cc1O` [Compound 15], in data set [1], the IC50 result was “Inactive”.

With `NC1CCN(O)C1=O` (stereo not drawn) [HA-966], the “affinity / antagonism” value in data set [3] is “partial agonist with micromolar affinity for the glycine binding site”. Besides, the “blood/brain barrier penetration, in words” value in data set [4] is given as “sufficiently penetrates the blood/brain barrier”.

For `Cc1ccc2[nH]c(=O)c(O)cc(=O)c2c1` [Compound 2], in data set [2], the Kb was 9500 nM and the “antagonism, in words” value is “antagonists at the strychnine insensitive glycine site”. On to `Cc1cc(C)c2c(=O)cc(O)c(=O)[nH]c2c1` [Compound 97, 6,8-Dimethyl-3-hydroxy-1H-1-benzazepine-2,5-dione], for which the half-inhibitory concentration (IC50) in [1] (read-out: IC50) was 26000 nM. Turning to `[N-]=[N+]=Nc1ccc2[nH]c(=O)c(O)cc(=O)c2c1` [Compound 14], the IC50 result in data set [1] is reported as “Inactive”. On to `O=c1cc(O)c(=O)[nH]c2c1CC(Cl)C(Cl)C2` (stereo not drawn) [Compound 74, 3-Hydroxy-7,8-dichloro-6,7,8,9-tetrahydro-1H-1-benzazepine-2,5-dione], for which the IC50 in data set [1] (read-out: IC50) was found to be 3600 nM. The Ki on glycine/NMDA receptor (setting [7]) turned out to be 30 nM. The same molecule yielded an ED50 in the data set on male Swiss/Webster mice of 30 mg/kg. In the case of `NCC(=O)O` [glycine], the Kd in data set [3] (used in Cheng and Prusoff equation, read-out: known affinity of glycine for the glycine binding site of the NMDA receptor) was 100 nM.

`O=C(O)[C@@H]1C[C@H](CP(=O)(O)O)CCN1` [CGS 19755]: the “neuroprotective efficacy, in words” value in data set [6] is listed as “neuroprotective efficacy”. In addition, in the data set on rodents, the “PCP-like behavioral effects, in words” value was “adverse PCP-like behavioral side effects”. In the case of `O=c1[nH]c2cc(C(F)(F)F)ccc2c(=O)cc1O` [Compound 16], the IC50 in data set [1] (read-out: IC50) was 3400 nM. Further, the “activity” value in data set [1] was “enhanced activity”. Consider `CC1Cc2[nH]c(=O)c(O)cc(=O)c2CC1C` (stereo not drawn) [Compound 81, 7,8-dimethyl-3-hydroxy-6,7,8,9-tetrahydro-1H-1-benzazepine-2,5-dione], for which the IC50 in [1] (read-out: IC50) was 9280 nM. The Ki on glycine/NMDA receptor (setting [7]) came to 177 nM. In the data set on male Swiss/Webster mice, the ED50 was determined as 6 mg/kg. Turning to `O=C(O)C1CC2CC(CP(=O)(O)O)CCC2CN1` (stereo not drawn) [LY274614], in [6], the “neuroprotective efficacy, in words” value is recorded as “neuroprotective efficacy”. As to `Cc1ccc2[nH]c(=O)c(O)cc(=O)c2c1C` [Compound 109, 6,7-dimethyl-3-hydroxy-1H-1-benzazepine-2,5-dione], in data set [1], the IC50 entry was “inactive”. In the case of `O=c1[nH]c2cc(Cl)ccc2c(=O)cc1O` [Compound 6], the IC50 in data set [1] (read-out: IC50) was 2500 nM; in data set [5], 30 nM; in the data set on guinea pig ileum it was 110 nM. In [1], the “activity” value is given as “enhanced activity”.

`CC(=O)Nc1ccc2[nH]c(=O)c(O)cc(=O)c2c1` [Compound 12]: in [1] (read-out: IC50), the IC50 stood at 92500 nM.

Regarding `Cc1cc2[nH]c(=O)c(O)cc(=O)c2c(C)c1[N+](=O)[O-]` [Compound 99, 6,8-Dimethyl-3-hydroxy-7-nitro-1H-1-benzazepine-2,5-dione], the IC50 in data set [1] (read-out: IC50) came out at 69500 nM. Regarding `O=C(O)c1cc2ccccc2[nH]1` [indole-2-carboxylic acid], the “affinity / antagonism” value in [3] was “relatively high receptor binding affinity in vitro”. Further, the “blood/brain barrier penetration, in words” value in data set [4] is listed as “cannot penetrate the blood/brain barrier”. With `Cc1cc(C)c2[nH]c(=O)c(O)cc(=O)c2c1` [Compound 44, 3-Hydroxy-7,9-dimethyl-1H-1-benzazepine-2,5-dione], the IC50 entry in data set [1] was “inactive”. For `Cc1cccc2c(=O)cc(O)c(=O)[nH]c12` [Compound 43, 3-Hydroxy-9-methyl-1H-1-benzazepine-2,5-dione], in data set [1], the IC50 entry is “inactive”.
